What was measured:
[1] = system: human mesenchymal stem cells; experiment: Insulin/dexamethasone analysis to identify progenitor and pluripotent cells (morphology); assay type: cell-based
Experimental: Aliquots of CM-SkM, CF-SkM, NHDF, PAL#3, and PAL#2 cells were thawed and plated individually at 10,000 cells per well in 1% gelatin-coated 24-well plates [Corning, Corning, N.Y.] utilizing PM-B. After 24 hr PM-B was removed and replaced with either control medium, insulin testing medium, or dexamethasone testing medium. Control medium consisted of 98% (v/v) Opti-MEM containing 0.01 mM β-mercapto-ethanol, 1% (v/v) HS3, and 1% antibiotic-antimycotic solution. Insulin testing medium consisted of control medium containing 2 μg/ml insulin [Sigma]. Dexmethasone testing medium was composed of 98% Opti-MEM, 0.01 mM β-mercaptoethanol, 1% serum [HS3, HS9 (horse serum, lot number 90H-0701, Sigma) or FBS (fetal bovine serum, lot no. 3000L, Atlanta Biologicals, Norcross, Ga.)] and 1% antibiotic-antimycotic solution. […]
Discernible changes in phenotypic expression of the cells were assayed morphologically. These morphological tissue cellular types were identical to those previously noted in avian and mouse mesenchymal stem cells incubated with insulin or dexamethasone and extensively analyzed by histochemical and immunochemical procedures (Young et al., 1995; Rogers et al., 1995; Young et al., 1993; Young, 1999; Young et al., 1998). […]
Discernible changes in phenotypic expression of the putative mesenchymal stem cells were determined using morphological criteria. […]

pluripotent stem cells = experiment: Proliferation and phenotypic responses to bioactive factors: pluripotent cells; assay type: cell-based
Source text: Having access to mixed populations of progenitor stem cells, progenitor stem cell clones, and pluripotent stem cell clones permits one to address the influence of various bioactive factors (e.g. recombinant growth factors, purified compounds, and novel inductive factors) on the growth characteristics and phenotypic expression of these stem cells.
Cryopreserved cells are thawed and plated in MSC-1 at 5, 10, or 20×10^3 cells per well of gelatinized 24-well plates following the standard protocol. Twenty-four hours after initial plating the medium is changed to testing medium (TM) 1 to 6 (TM-1, TM-2, TM-3, TM-4, TM-5, or TM-6). TM-1 to TM-4 consist of Ultraculture (cat. no. 12-725B, lot. nos. OMO455 [TM-1], 1M1724 [TM-2], 2M0420 [TM-3], or 2M0274 [TM-4], Bio-Whittaker, Walkersville, Md.), medium (EMEM or Opti-MEM 0.01 mM β-mercaptoethanol), and 1% (v/v) antibiotic-antimycotic, pH 7.4. TM-5 consists of 98% (v/v) medium, 1% (v/v) HS, and 1% (v/v) antibiotic-antimycotic, pH 7.4. TM-6 consists of 98.5% (v/v) medium, 0.5% (v/v) HS, and 1% (v/v) antibiotic-antimycotic, pH 7.4. […] Four testing media (TM#'s 1-4), each containing various concentrations of Ultraculture, were used as. […] The four Ultraculture-based testing media were: TM-1=15% (v/v) Ultraculture (Lot no. OMO455): 84% (v/v) medium: 1% (v/v) antibiotics; TM-2=15% (v/v) Ultraculture (Lot no. 1M1724): 84% (v/v) medium: 1% (v/v) antibiotics; TM-3=50% (v/v) Ultraculture (Lot no. 2M0420): 49% (v/v) medium: 1% (v/v) antibiotics; and TM-4=75% (v/v) Ultraculture (Lot no. 2M0274): 24% (v/v) medium: 1% (v/v) antibiotics. Pre-incubation for 24 hr in testing medium alone is used to wash out any potential synergistic components in the MSC-1 medium. Twenty-four hours later the testing medium is changed to one of the following. For controls, TM-1 to TM-6 alone is used. To identify clones of progenitor cells, the medium is replaced with TM-1 to TM-6 containing 2 μg/ml insulin (Sigma), an agent that accelerates the appearance of phenotypic expression markers in progenitor cells (TABLE 12). To identify clones of pluripotent cells, the medium is replaced with TM-1 to TM-6 containing 10^−10 to 10^−6 M dexamethasone (Sigma), a general non-specific lineage-inductive agent (TABLE 13). Control and treated cultures are propagated for an additional 30-45 days with medium changes every other day. Four culture wells are used per concentration per experiment. During the 0-45 day time period the cultures are examined subjectively for changes in morphological characteristics on a daily basis. Alterations in phenotypic expression are correlated with the days of treatment and associated insulin or dexamethasone concentrations. The experiment is then repeated utilizing these parameters to confirm objectively the phenotypic expression markers using established histological, functional/histochemical, ELICA/flow cytometry, and molecular assays (TABLE 13).

## insulin
[1]
  effect on phenotypic expression at 80 cell doublings: had no effect on the cells
Pluripotent stem cells
  Proliferation, Pluripotent: number of times the agent increased the DNA content per well versus its respective control: 1 times
Pluripotent stem cells; pluripotent and progenitor cells
  activity on pluripotent and progenitor stem cells, in words: stimulated lineage-progression in all progenitor cells, but had no measurable effect on pluripotent cells
Pluripotent stem cells; presence and approximate distribution of differentiated phenotypes within the culture wells
  Phenotypic Expression, Pluripotent: 0

Reference: patent publication US10160948B2, “Pluripotent embryonic-like stem cells, compositions, methods and uses thereof” (ABT HOLDING COMPANY, priority 1999, dated 2018)
